{"source": "patent US4861772A", "about": "“Method and composition to treat panic syndrome” (Hoffmann-La Roche Inc., priority 1988, dated 1989)", "key": {"patients": {"tested_on": "patients", "test": "Clinically relevant effects noticed by patients (onset)", "assay_type": "in vivo, human", "conditions": "1 mg perorally in tablet form; generally", "experimental": "(§1) After 1 mg of compound A has been taken perorally in tablet form a maximal active substance level is already reached after 45 minutes. Clinically relevant effects, that is, effects noticed by patients, generally occur already after 10 minutes."}, "[1]": {"tested_on": "patients with panic syndrome", "test": "Double-blind, parallel group clinical study in patients with panic syndrome (end point analysis)", "assay_type": "in vivo, human", "experimental": "The results of a clinical study will be referred to as an example of the use and the effect of discontinuous therapy of panic attacks by means of compound A.\n(§2) The clinical study is a double-blind, parallel group study in which in each case 12 patients with panic syndrome were treated either with compound A, that is, tablets containing 0.5 mg of active substance or with a corresponding placebo. The course of the trial was the following. After examining the inclusion and exclusion criteria and recording the basic data, the patients each received 20 tablets with instructions to take one tablet at the approach or beginning of the next panic attack. The medicaments previously used had been withdrawn before the commencement of the study. In the case of a satisfactory outcome of treatment the initial dosage was to be used a once more. Then, for the second investigation, the investigator was to be consulted. In the case of an unsatisfactory outcome of therapy, the dosage in the case of the second panic attack was to be increased to two tablets, which dosage was to be repeated in the case of success and, in the case of failure, was to be increased to three tablets. […] Patients with ineffective medication were to be discharged from the trial. Patients in whom an effective dosage had been found would use that dose in the next twelve panic states. In cases in which withdrawal phenomena of the preceding treatment played a role, the twelve treatments of the main treatment phase can be extended with an additional twelve dosages in a further phase, additional phase.\n(§3) During the treatment, the patients were required to carry a treatment day book. On the basis of the remarks contained therein, the statements of the patients as well as specific observations, the results of the trial at the end of the titration phase (investigation 2), at the end of the main treatment phase (investigation 3) and, if desired, at the end of the additional phase (investigation 4) were introduced into the trial data by the investigator. The following psychiatric scales were filled out as standardized comparative investigations at all points in time of the trial: anxiety scale according to Covi, depression scale according to Raskin, self-evaluated anxiety scale (SAS) and self-evaluated depression scale (SDS) according to Zung, as well as the withdrawal symptom scale (WSS) according to Merz & Ballmer.\nIn each case, 12 patients were treated with compound A or placebo. In the group treated with compound A, 7 were male and 5 female with an average age of 33±5.4 years, of which--according to the DSM-III classification--2 suffered from panic syndrome without agoraphobia and 10 suffered from panic syndrome with agoraphobia. The diagnosis of a major depression was also established in 6 cases.\nThe average duration of the disorder amounted to 98±83 months in the group treated with compound A and to 143±164 months in the placebo group. The weekly frequency of panic states was 5.6±3.2 in the group treated with compound A and 7.6±5.6 in the placebo group. In this calculation, a runaway in the placebo group which fell outside the average value and the five-fold standard deviation was not taken into consideration. The average duration of the panic attacks was 27±17 minutes in the group treated with compound A and 25±16 minutes in the placebo group. Nine (9) patients treated with compound A and 10 placebo patients were able to predict attacks with an average prediction time of 11±12 minutes in the group treated with compound A and 10±7 minutes in the placebo group.\nBecause of the different lengths of the total treatment, average duration 43±27 days in the group treated with compound A and 28±32 days in the placebo group and because of the unequal distribution of the exclusions and drop-outs, the following results are presented in the form of an end point analysis: […]"}, "[2]": {"test": "Plasma level after peroral intake of compound A in tablet form", "assay_type": "in vivo", "conditions": "human, po, 1 mg perorally in tablet form", "experimental": "as §1"}, "[3]": {"tested_on": "patients with panic syndrome", "test": "Side effects in the clinical study in patients with panic syndrome", "assay_type": "in vivo, human", "experimental": "as §2, §3\nThe following side effects were found:\n^3 MRA = \"Mean Risk per Administration\", i.e. the risk at which the\nparticular side effect is incurred by a single intake of the medicament.\nFrom the list of side effects, it is evident that the […] has less benzodiazepine-typical side effects of the sedative and motor type."}}}
{"smiles": "CC(C)(C)OC(=O)c1ncn2c1[C@@H]1CCCN1C(=O)c1c(Br)cccc1-2", "note": "[Compound A, t-butyl (S)-8-bromo-11,12,13,13a-tetrahydro-9-oxo-9H-imidazo[1,5-a]pyrrolo[2,1-c][1,4]benzodiazepine-1-carboxylate]", "values": [{"measurement": "time to clinically relevant effects (noticed by patients)", "setting": "patients", "value": 10, "unit": "min"}, {"measurement": "antipanic activity", "setting": "[1]; conclusion from the clinical comparison", "value": "specific antipanic activity"}, {"measurement": "Δ frequency of attack per week (n)", "setting": "[1]; n = 12, p < 0.05 vs placebo", "value": "-2.6 ± 3.3", "unit": "n"}, {"measurement": "Average treatment period", "setting": "[1]; n = 12, p < 0.05 vs placebo (Mann-Whitney U test)", "value": "43 ± 27", "unit": "days"}, {"measurement": "Δ withdrawal symptom scale (WSS)", "setting": "[1]; n.s. vs placebo", "value": "-3.9 ± 6.8"}, {"measurement": "Δ Covi anxiety scale (outside evaluation)", "setting": "[1]; p < 0.001 vs placebo", "value": "3.3 ± 3.2"}, {"measurement": "Δ Raskin depression scale (outside evaluation)", "setting": "[1]; p < 0.001 vs placebo", "value": "1.9 ± 3.2"}, {"measurement": "Δ Zung anxiety scale (self evaluation)", "setting": "[1]; p < 0.001 vs placebo", "value": "6.4 ± 8.5"}, {"measurement": "Δ Zung depression scale (self evaluation)", "setting": "[1]; p < 0.001 vs placebo", "value": "4.5 ± 9.0"}, {"measurement": "Average improvement in phobias", "setting": "[1]; scale as initial intensity, p < 0.001 vs placebo", "value": "2.2 ± 1.0"}, {"measurement": "Reduction in the intensity of attack", "setting": "[1]; score 4 = complete, 3 = strong, 2 = weak, 1 = no effect, p < 0.01 vs placebo", "value": "3.5 ± 0.9"}, {"measurement": "Average number of tablets at the end of treatment", "setting": "[1]; tablets of 0.5 mg, n = 12, p < 0.001 vs placebo", "value": "1.4 ± 0.9"}, {"measurement": "secondary panic symptoms in untreated intervals between successive panic attacks", "setting": "[1]; vs placebo", "value": "reduced significantly better than by placebo"}, {"measurement": "Tmax", "setting": "[2]; read-out: time to maximal active substance level (converted)", "value": 0.75, "unit": "h"}, {"measurement": "half-life", "setting": "[2]; read-out: β-half life (converted)", "value": 2.25, "unit": "h"}, {"measurement": "quality of the observed side effects", "setting": "[3]; CGI evaluation, in total", "value": "only of minimal quality"}, {"measurement": "tolerance", "setting": "[3]; all together", "value": "satisfactory tolerance"}, {"measurement": "Coarse muscular relaxation, No. Pat.", "setting": "[3]; number of patients, of 12", "value": 1}, {"measurement": "Dopiness, No. Pat.", "setting": "[3]; number of patients, of 12", "value": 5}, {"measurement": "Drowsiness, No. Pat.", "setting": "[3]; number of patients, of 12", "value": 9}, {"measurement": "Dry mouth, No. Pat.", "setting": "[3]; number of patients, of 12", "value": 1}, {"measurement": "Headache, No. Pat.", "setting": "[3]; number of patients, of 12", "value": 1}, {"measurement": "Nausea, No. Pat.", "setting": "[3]; number of patients, of 12", "value": 1}, {"measurement": "Slurred speech/\"heavy tongue\", No. Pat.", "setting": "[3]; number of patients, of 12", "value": 2}, {"measurement": "Unsteadiness when walking or standing, No. Pat.", "setting": "[3]; number of patients, of 12", "value": 4}, {"measurement": "Coarse muscular relaxation, No. Reg.", "setting": "[3]; number registered", "value": 2}, {"measurement": "Dopiness, No. Reg.", "setting": "[3]; number registered", "value": 60}, {"measurement": "Drowsiness, No. Reg.", "setting": "[3]; number registered", "value": 45}, {"measurement": "Dry mouth, No. Reg.", "setting": "[3]; number registered", "value": 2}, {"measurement": "Headache, No. Reg.", "setting": "[3]; number registered", "value": 2}, {"measurement": "Nausea, No. Reg.", "setting": "[3]; number registered", "value": 9}, {"measurement": "Slurred speech/\"heavy tongue\", No. Reg.", "setting": "[3]; number registered", "value": 5}, {"measurement": "Unsteadiness when walking or standing, No. Reg.", "setting": "[3]; number registered", "value": 13}, {"measurement": "duration of side effects as part of the total treatment period", "setting": "[3]; on average", "value": "0.96±1.01", "unit": "%"}, {"measurement": "total duration of side effects", "setting": "[3]; on average", "value": "7.8 ± 7.6", "unit": "h"}, {"measurement": "Coarse muscular relaxation, MRA (Mean Risk per Administration)", "setting": "[3]; risk per single intake", "value": 0.7, "unit": "%"}, {"measurement": "Dopiness, MRA (Mean Risk per Administration)", "setting": "[3]; risk per single intake", "value": 21.8, "unit": "%"}, {"measurement": "Drowsiness, MRA (Mean Risk per Administration)", "setting": "[3]; risk per single intake", "value": 16.4, "unit": "%"}, {"measurement": "Dry mouth, MRA (Mean Risk per Administration)", "setting": "[3]; risk per single intake", "value": 0.7, "unit": "%"}, {"measurement": "Headache, MRA (Mean Risk per Administration)", "setting": "[3]; risk per single intake", "value": 0.7, "unit": "%"}, {"measurement": "Nausea, MRA (Mean Risk per Administration)", "setting": "[3]; risk per single intake", "value": 3.3, "unit": "%"}, {"measurement": "Slurred speech/\"heavy tongue\", MRA (Mean Risk per Administration)", "setting": "[3]; risk per single intake", "value": 1.8, "unit": "%"}, {"measurement": "Unsteadiness when walking or standing, MRA (Mean Risk per Administration)", "setting": "[3]; risk per single intake", "value": 4.7, "unit": "%"}]}
